According to publication PMC4227753, “Mycobacterium smegmatis DinB2 misincorporates deoxyribonucleotides and ribonucleotides during templated synthesis and lesion bypass” (Nucleic Acids Research, 2014):

Target: T1, DinB2 (Mycolicibacterium smegmatis, UniProt A0QR77)
T1 construct: gene dinB
Experiment: single-turnover primer extension, kobs vs [NTP], one-site fit
Format: biochemical
Conditions: 5 mM MgCl2, 10 mM Tris-HCl pH 7.5, 37 C, 1 uM DinB2, 50 nM 13-mer/18-mer primer-template

T1 sequence (A0QR77 entry or part of it): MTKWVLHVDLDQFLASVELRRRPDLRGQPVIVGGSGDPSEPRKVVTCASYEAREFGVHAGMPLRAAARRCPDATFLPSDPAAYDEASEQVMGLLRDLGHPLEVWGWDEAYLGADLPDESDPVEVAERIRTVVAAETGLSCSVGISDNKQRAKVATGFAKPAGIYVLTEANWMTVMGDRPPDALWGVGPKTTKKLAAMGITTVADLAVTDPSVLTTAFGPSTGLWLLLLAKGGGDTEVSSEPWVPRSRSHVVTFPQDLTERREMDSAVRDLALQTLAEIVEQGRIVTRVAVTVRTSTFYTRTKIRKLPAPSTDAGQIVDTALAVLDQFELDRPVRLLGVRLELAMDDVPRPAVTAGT

Row | Structure (SMILES) | Kd (mispair: opposite template dT (oligo-dT5 tail)) [µM] | Kd (mispair: opposite template dC (oligo-dC5 tail)) [µM]
1 | Nc1nc2c(ncn2[C@@H]2O[C@H](COP(=O)(O)OP(=O)(O)OP(=O)(O)O)[C@@H](O)[C@H]2O)c(=O)[nH]1 [GTP] | 386 | –
2 | O=c1ccn([C@@H]2O[C@H](COP(=O)(O)OP(=O)(O)OP(=O)(O)O)[C@@H](O)[C@H]2O)c(=O)[nH]1 [UTP] | – | 412
